Entries after “also recorded” stand apart in the source; their conditions may differ.
Columns and labels:
[1] = target: T1, His-HIF-1α1–350 with GST-HIF-1β1–474 (Homo sapiens, UniProt Q16665); assay: ELISA of HIF-1 dimerization; type: biochemical; settings: 10 nM to 500 μM, pH 7.5, 30 min preincubation, room temperature, absorbance 450 nm, read-out: IC50, disruption of HIF-1 dimerization
T1 construct: heterodimerization of His-HIF-1α1–350 with GST-HIF-1β1–474 analyzed by ELISA; made in house; host or cells: E. coli BL21(DE3)
Description: We next probed the effect of cyclo-CLLFVY on the interaction of HIF-1α with HIF-1β in vitro. […] Unfortunately, the positively charged Tat-tag of P1 is incompatible with EMSA (interferes with the bandshift of DNA). […] To determine the HIF-1-specificity of cyclo-CLLFVY, we assessed its ability to disrupt HIF-2 dimerization by ELISA. Recombinant His-HIF-2α1–351 was produced and purified, and shown to form functional heterodimers with GST-HIF-1β1–474 by EMSA (Figure S5B).
HIF-1β1-474, *please note that isoform 3 of HIF-1β was used). The standard protocol for protein expression was followed. Briefly, a 1 % culture in LB was incubated at 37 °C with shaking until OD600 of 0.6 was reached. 0.1 mM IPTG was added and the liquid culture incubated with shaking at 18 °C overnight. Cell pellets were suspended in MHW buffer9 (approximately 4 ml buffer per 1 g cell pellet). Lysozyme (100 µg/ml) was added to the lysate and the solution was incubated with shaking for 20 min at 5 °C. […]
glycerol) was added to individual wells of a Pierce Ni2+-coated 96-well plate (Thermo Scientific, catalogue no. […] The stated quantity of inhibitor (P1 or P2) was added as a solution in 100 µL of buffer to the desired wells, and the plate incubated at room temperature for 30 minutes. […]

MCF-7 cells [2] = assay: CyQUANT cell proliferation assay, MCF-7; type: cell-based; settings: 100 μM, 72 h
Procedure: Sulforhodamine B cytotoxicity assay […]
incubated in hypoxia for 24h.
O.D. value of the experimental set.
CyQUANT cell proliferation assay
The cells were incubated for 5 hours and then treated with Tamoxifen or P1. After 24, 48 or 72 hours, the media was […]
C35006) following the manufacturers instructions. Fluorescence measurements were […]
Workman, P.; Ashcroft, M. Cancer Res 2005, 65, 4918.

MCF-7 cells [3] = settings: MCF-7, 100 μM, hypoxia 24 h
U2OS cells = settings: 100 μM, hypoxia 24 h
HIF-1 = settings: cited from earlier work
Description: (§1) Inhibition of HIF-1 has long been known to hold much potential for cancer therapy;[14] there are multiple possible points for therapeutic intervention in the hypoxia response network, and molecules that inhibit various components of this diverse pathway have been reported,[15]−[22] but the absolute requirement for the dimerization of HIF-1α and HIF-1β for DNA binding and transcription activity of the HIF-1 complex makes this protein–protein interaction a seemingly optimal point of interception. Several high-throughput screens have been conducted in the effort to identify HIF-1 inhibitors,[15], ...

HIF-2 = settings: cited from earlier work
Description: as §1

HIF-2α PAS-B = settings: cited from earlier work
Description: (§2) A homology model of HIF-1α PAS-B mapped onto the NMR s ...

PAS-B domain of HIF-1α = target: T2, PAS-B domain of HIF-1α (Homo sapiens, UniProt Q16665); settings: cited from earlier work
T2 construct: Per-ARNT-Sim-B (PAS-B, amino acids 235–350) domains; His (N); made in house; host or cells: E. coli BL21(DE3)
Description: as §2

Compound	IC50 [1] [µM]	viability / proliferation of MCF-7 cells (MCF-7 cells [2])	SRB cytotoxicity (MCF-7 cells [3])	SRB cytotoxicity (U2OS cells)	inhibition of HIF-1 (HIF-1)	inhibition of HIF-2 (HIF-2)	targeting of PAS-B domain of HIF-2α (HIF-2α PAS-B)	targeting of PAS-B domain of HIF-1α (PAS-B domain of HIF-1α)
CC(C)C[C@@H]1NC(=O)[C@H](CSSC[C@H](N)C(=O)NCC(=O)N[C@@H](CCCNC(=N)N)C(=O)N[C@@H](CCCCN)C(=O)N[C@@H](CCCCN)C(=O)N[C@@H](CCCNC(=N)N)C(=O)N[C@@H](CCCNC(=N)N)C(=O)N[C@@H](CCC(N)=O)C(=O)N[C@@H](CCCNC(=N)N)C(=O)N[C@@H](CCCNC(=N)N)C(=O)N[C@@H](CCCNC(=N)N)C(=O)N2CCC[C@H]2C(=O)N2CCC[C@H]2C(=O)N[C@@H](CCC(N)=O)C(=O)O)NC(=O)[C@H](Cc2ccc(O)cc2)NC(=O)[C@H](C(C)C)NC(=O)[C@H](Cc2ccccc2)NC(=O)[C@H](CC(C)C)NC1=O [P1, Tat-cyclo-CLLFVY]	1.3	did not affect the viability of MCF-7 cells; also recorded: no effect on MCF-7 proliferation	not cytotoxic	not cytotoxic	–	–	–	–
acriflavine	–	–	–	–	nonselectively inhibits both HIF-1 and HIF-2	nonselectively inhibits both HIF-1 and HIF-2	targeted	targeted
